# Measurements taken from paper PMC6934184, “Selective DNA-PKcs inhibition extends the therapeutic index of localized radiotherapy and chemotherapy” (The Journal of Clinical Investigation, 2019).
# Molecular target: T1, AMPK (A2/B2/G2) (Homo sapiens, UniProt P54646)
# T1 construct: purchased Thermo Fisher Scientific (Life Technologies) SelectScreen
# Test: SelectScreen LanthaScreen
# Type: binding
# Conditions: read-out: % displacement
# Method in brief: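 Percent values come from Thermo SelectScreen profiling of NU5455, combining activity and binding assays. CSF1R was run in Z'LYTE format at Km app ATP, and CAMK1 in Adapta format with ATP listed at 10.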
# T1 sequence (P54646 whole entry): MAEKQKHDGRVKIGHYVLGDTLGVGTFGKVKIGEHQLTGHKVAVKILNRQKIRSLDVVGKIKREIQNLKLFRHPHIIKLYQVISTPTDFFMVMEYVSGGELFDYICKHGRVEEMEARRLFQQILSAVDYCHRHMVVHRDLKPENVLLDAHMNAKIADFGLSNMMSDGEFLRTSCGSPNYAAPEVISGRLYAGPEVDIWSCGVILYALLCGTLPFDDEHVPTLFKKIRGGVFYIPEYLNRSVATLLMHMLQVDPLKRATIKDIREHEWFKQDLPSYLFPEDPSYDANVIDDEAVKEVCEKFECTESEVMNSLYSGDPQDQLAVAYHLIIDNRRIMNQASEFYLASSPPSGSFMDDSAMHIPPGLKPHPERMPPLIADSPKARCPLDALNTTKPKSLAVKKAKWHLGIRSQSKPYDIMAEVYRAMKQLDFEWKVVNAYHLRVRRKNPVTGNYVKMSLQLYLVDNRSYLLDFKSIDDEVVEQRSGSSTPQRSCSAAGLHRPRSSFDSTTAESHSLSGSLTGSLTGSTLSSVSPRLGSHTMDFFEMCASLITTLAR
# T1 sequence (O43741 whole entry partner): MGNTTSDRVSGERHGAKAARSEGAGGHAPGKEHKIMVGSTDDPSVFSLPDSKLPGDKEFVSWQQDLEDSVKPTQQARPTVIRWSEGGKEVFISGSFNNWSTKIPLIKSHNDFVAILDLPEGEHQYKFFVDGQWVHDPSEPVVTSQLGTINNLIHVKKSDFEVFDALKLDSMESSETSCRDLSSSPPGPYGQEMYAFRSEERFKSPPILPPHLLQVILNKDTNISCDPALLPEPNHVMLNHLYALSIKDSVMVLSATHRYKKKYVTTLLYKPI
# T1 sequence (Q9UGJ0 whole entry partner): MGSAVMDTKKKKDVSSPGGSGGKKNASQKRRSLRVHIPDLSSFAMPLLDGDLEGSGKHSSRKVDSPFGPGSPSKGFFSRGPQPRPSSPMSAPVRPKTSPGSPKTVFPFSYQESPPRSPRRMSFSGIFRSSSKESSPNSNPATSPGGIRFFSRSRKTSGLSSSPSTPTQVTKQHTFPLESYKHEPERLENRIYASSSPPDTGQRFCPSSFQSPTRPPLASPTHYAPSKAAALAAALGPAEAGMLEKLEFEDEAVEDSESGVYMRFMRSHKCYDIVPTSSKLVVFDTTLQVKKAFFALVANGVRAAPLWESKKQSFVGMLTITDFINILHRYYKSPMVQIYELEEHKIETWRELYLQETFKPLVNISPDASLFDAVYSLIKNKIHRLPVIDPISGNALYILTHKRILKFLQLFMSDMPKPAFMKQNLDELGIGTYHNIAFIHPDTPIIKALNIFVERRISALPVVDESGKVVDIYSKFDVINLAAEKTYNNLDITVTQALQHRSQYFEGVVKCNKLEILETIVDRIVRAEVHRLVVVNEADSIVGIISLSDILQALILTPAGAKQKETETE
smiles,measurement,value
CN(C(=O)CN1CCOCC1)c1ccc2sc3c(-c4cccc5c(=O)cc(N6CC7CCC(C6)O7)oc45)cccc3c2c1 [NU5455],inhibition at 1 µM,-2.6%
